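Five concentrations, 48 hours, 96-well plates. At the GI50, growth is halved.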 Active and inactive are the calls of the source. Cut-off read from the data, not from the text of the source: active = GI50 up to about 1.1 µM and inactive = higher.
Columns and labels:
Experiment in all cases: NCI tumour cell line growth inhibition, 48 h
HOP-62 = tested on: HOP-62
SNB-75 = tested on: SNB-75
SK-MEL-28 = tested on: SK-MEL-28
SNB-19 = tested on: SNB-19
RXF 393 = tested on: RXF 393
SF-295 = tested on: SF-295
NCI-H460 = tested on: NCI-H460
EKVX = tested on: EKVX
SF-539 = tested on: SF-539
HL-60 = tested on: HL-60
MOLT-4 = tested on: MOLT-4
OVCAR-8 = tested on: OVCAR-8
TK-10 = tested on: TK-10
SF-268 = tested on: SF-268
HCT-15 = tested on: HCT-15
SK-MEL-5 = tested on: SK-MEL-5

| SMILES | GI50 (HOP-62) | GI50 (SNB-75) | GI50 (SK-MEL-28) | GI50 (SNB-19) | GI50 (RXF 393) | GI50 (SF-295) | GI50 (NCI-H460) | GI50 (EKVX) | GI50 (SF-539) | GI50 (HL-60) | GI50 (MOLT-4) | GI50 (OVCAR-8) | GI50 (TK-10) | GI50 (SF-268) | GI50 (HCT-15) [µM] | GI50 (SK-MEL-5) |
| --- | --- | --- | --- | --- | --- | --- | --- | --- | --- | --- | --- | --- | --- | --- | --- | --- |
| CCC(=O)CCC1=Nc2nnc(CCCCc3nnc4n3C(=O)C(CCC(=O)CC)=N4)n2C1=O | > 100 µM (inactive) | > 100 µM (inactive) | > 100 µM (inactive) | > 100 µM (inactive) | > 100 µM (inactive) | > 100 µM (inactive) | > 100 µM (inactive) | > 100 µM (inactive) | > 100 µM (inactive) | > 100 µM (inactive) | > 100 µM (inactive) | > 100 µM (inactive) | > 100 µM (inactive) | > 100 µM (inactive) | > 100 |  |
| C[N+](C)=c1nc(N2CCOCC2)ss1 | > 100 µM (inactive) |  | > 100 µM (inactive) | > 100 µM (inactive) | > 100 µM (inactive) | 78.2 µM (inactive) | 8.04 µM (inactive) | > 100 µM (inactive) | > 100 µM (inactive) | > 100 µM (inactive) | > 100 µM (inactive) | > 100 µM (inactive) | > 100 µM (inactive) | 76.6 µM (inactive) | > 100 | > 100 µM (inactive) |
| c1ccc(C2SCc3nc4ccccc4n32)cc1 (configuration not stated) | 43.8 µM (inactive) | 3.14 µM (inactive) | 40.3 µM (inactive) | 32.2 µM (inactive) | 53.2 µM (inactive) | 23 µM (inactive) | 40.8 µM (inactive) | 39.4 µM (inactive) | 22.5 µM (inactive) | 15.6 µM (inactive) | 28.2 µM (inactive) | 65 µM (inactive) | 52.4 µM (inactive) | 37.9 µM (inactive) | 44.4 | 18.6 µM (inactive) |
| O=C1C=C(N2CCCC2)C=C(N2CCCC2)C1 | > 100 µM (inactive) | 85.1 µM (inactive) | > 100 µM (inactive) | > 100 µM (inactive) | > 100 µM (inactive) | > 100 µM (inactive) | > 100 µM (inactive) | > 100 µM (inactive) |  | > 100 µM (inactive) | > 100 µM (inactive) | > 100 µM (inactive) | > 100 µM (inactive) | > 100 µM (inactive) | > 100 | > 100 µM (inactive) |
| N#CCCN(CCC#N)c1ccc(/C=C(/NC(=O)c2cc([N+](=O)[O-])ccc2Cl)C(=O)NN)cc1 | > 100 µM (inactive) | > 100 µM (inactive) | > 100 µM (inactive) | > 100 µM (inactive) | > 100 µM (inactive) | > 100 µM (inactive) | > 100 µM (inactive) | > 100 µM (inactive) | > 100 µM (inactive) |  | 44.8 µM (inactive) | 58.3 µM (inactive) | > 100 µM (inactive) | > 100 µM (inactive) | > 100 | > 100 µM (inactive) |
| Cc1cccc(NC2=NC(=O)C(CC(=O)Nc3cccc(C)c3C)S2)c1 (configuration not stated) | > 100 µM (inactive) | > 100 µM (inactive) | > 100 µM (inactive) | > 100 µM (inactive) | > 100 µM (inactive) | > 100 µM (inactive) | > 100 µM (inactive) | > 100 µM (inactive) |  | 35.9 µM (inactive) | 24.3 µM (inactive) | > 100 µM (inactive) | > 100 µM (inactive) | > 100 µM (inactive) |  | > 100 µM (inactive) |
| Oc1ccccc1/C=N/Cc1ccco1 | > 100 µM (inactive) | > 100 µM (inactive) | > 100 µM (inactive) | > 100 µM (inactive) | > 100 µM (inactive) | > 100 µM (inactive) | > 100 µM (inactive) | > 100 µM (inactive) | > 100 µM (inactive) | > 100 µM (inactive) | > 100 µM (inactive) | > 100 µM (inactive) | > 100 µM (inactive) | > 100 µM (inactive) |  |  |
| NC(=O)C12CC3CC(CC(F)(C3)C1)C2 | > 100 µM (inactive) | 57.4 µM (inactive) | > 100 µM (inactive) |  | > 100 µM (inactive) |  | > 100 µM (inactive) | > 100 µM (inactive) | > 100 µM (inactive) | > 100 µM (inactive) | > 100 µM (inactive) | > 100 µM (inactive) | > 100 µM (inactive) |  |  |  |
| C=CCC1(CN(C)C)CC/C(=C\c2ccc(OC)cc2)C1=O (configuration not stated) | > 100 µM (inactive) | > 100 µM (inactive) | > 100 µM (inactive) | > 100 µM (inactive) | > 100 µM (inactive) | > 100 µM (inactive) | > 100 µM (inactive) | 20.3 µM (inactive) | > 100 µM (inactive) | 15 µM (inactive) | 28.7 µM (inactive) | 69.8 µM (inactive) | > 100 µM (inactive) | > 100 µM (inactive) | 52 | 41.5 µM (inactive) |
| CC#COS(=O)(=O)c1ccc(C)cc1 | > 100 µM (inactive) |  |  | > 100 µM (inactive) |  | > 100 µM (inactive) | 70.6 µM (inactive) | 53.5 µM (inactive) | > 100 µM (inactive) | 26.4 µM (inactive) | 41.1 µM (inactive) | > 100 µM (inactive) | > 100 µM (inactive) | 93.3 µM (inactive) | 79.8 | 37.4 µM (inactive) |
| CC(=O)OCC1OC(n2c(=S)n(-c3ccccc3)c(=O)c3cc(Br)ccc32)C(OC(C)=O)C1OC(C)=O (configuration not stated) | > 100 µM (inactive) | 83.9 µM (inactive) | > 100 µM (inactive) | > 100 µM (inactive) | > 100 µM (inactive) | > 100 µM (inactive) | > 100 µM (inactive) | > 100 µM (inactive) | > 100 µM (inactive) |  | 53.8 µM (inactive) | > 100 µM (inactive) |  | > 100 µM (inactive) | > 100 | > 100 µM (inactive) |
| COc1cc2ccc(/C(C)=N/OC(C)=O)cc2cc1OC |  | 5.81 µM (inactive) | > 100 µM (inactive) | > 100 µM (inactive) | 25.4 µM (inactive) | 49.9 µM (inactive) | 82.2 µM (inactive) | 3.58 µM (inactive) | 77.1 µM (inactive) |  | 39.7 µM (inactive) | > 100 µM (inactive) | 44.8 µM (inactive) | 44.4 µM (inactive) | > 100 |  |
| C=CCC1C(=O)C(C(=O)OC)N2CCc3c([nH]c4ccccc34)C12 (configuration not stated) | > 100 µM (inactive) |  | > 100 µM (inactive) | > 100 µM (inactive) | > 100 µM (inactive) | > 100 µM (inactive) |  | > 100 µM (inactive) | > 100 µM (inactive) | > 100 µM (inactive) | 64.9 µM (inactive) | > 100 µM (inactive) | > 100 µM (inactive) | > 100 µM (inactive) | > 100 | > 100 µM (inactive) |
| O=C1C2=C(c3ccccc31)C(c1ccccc1Cl)N1C(=O)CSC1=N2 (configuration not stated) | > 100 µM (inactive) | 39.4 µM (inactive) | 49.3 µM (inactive) | > 100 µM (inactive) |  | 83.4 µM (inactive) | > 100 µM (inactive) | > 100 µM (inactive) | > 100 µM (inactive) | 45.6 µM (inactive) | 33.9 µM (inactive) | > 100 µM (inactive) | > 100 µM (inactive) | 56.2 µM (inactive) | 83.4 | > 100 µM (inactive) |
| CC(=O)Oc1c(-c2ccccc2)[nH]c2cc([N+](=O)[O-])c(/C(Cl)=C/c3ccccc3)cc12 | 25.9 µM (inactive) | 15.6 µM (inactive) | 6.37 µM (inactive) | 8.97 µM (inactive) |  | 4.08 µM (inactive) | 4.62 µM (inactive) | 8.53 µM (inactive) |  | 2.84 µM (inactive) | 2.84 µM (inactive) | 4.3 µM (inactive) | 19.8 µM (inactive) | 7.96 µM (inactive) |  | 1.89 µM (inactive) |
| O=C(CC/C(CC(=O)c1ccc(Cl)cc1)=N/O)Nc1ccc(Cl)c(Cl)c1 | > 100 µM (inactive) | 26 µM (inactive) | > 100 µM (inactive) | > 100 µM (inactive) |  | > 100 µM (inactive) | > 100 µM (inactive) | 10.3 µM (inactive) | > 100 µM (inactive) | > 100 µM (inactive) | 53.2 µM (inactive) | > 100 µM (inactive) | > 100 µM (inactive) | > 100 µM (inactive) | 48.1 | 76.2 µM (inactive) |
| CCOc1ccc2nc(NC(=O)C(=O)C(C(=O)c3ccccc3F)C3OC(=O)c4ccccc43)sc2c1 (configuration not stated) | 23.5 µM (inactive) | 15.1 µM (inactive) | 24.4 µM (inactive) | 14.5 µM (inactive) | 21.5 µM (inactive) |  | 17.5 µM (inactive) | 19.1 µM (inactive) | 10.3 µM (inactive) | 16.8 µM (inactive) | 10.3 µM (inactive) | 16 µM (inactive) | 23.3 µM (inactive) | 16.1 µM (inactive) | 14.5 | 15.9 µM (inactive) |
| COc1ccc(CC(=O)NCCc2ccc(OC)c(OC)c2)cc1Br | > 100 µM (inactive) |  | > 100 µM (inactive) | > 100 µM (inactive) | > 100 µM (inactive) | > 100 µM (inactive) | > 100 µM (inactive) | > 100 µM (inactive) | > 100 µM (inactive) | > 100 µM (inactive) | > 100 µM (inactive) | > 100 µM (inactive) | > 100 µM (inactive) | > 100 µM (inactive) |  |  |
| CC1=C2CC[C@@]3(C)C(=CCC3O)C2(C)CCC1=O (some centres not stated) | > 100 µM (inactive) | 83 µM (inactive) | > 100 µM (inactive) | > 100 µM (inactive) | > 100 µM (inactive) | > 100 µM (inactive) | > 100 µM (inactive) | 27.1 µM (inactive) | > 100 µM (inactive) | > 100 µM (inactive) | > 100 µM (inactive) | > 100 µM (inactive) | > 100 µM (inactive) | > 100 µM (inactive) | > 100 | > 100 µM (inactive) |
